Entries after “also recorded” stand apart in the source; their conditions may differ.
Assays:
[1] = molecular target: T1, Aβ1-42 (Homo sapiens, UniProt P05067); experiment: ATR-FTIR sensor drug-screening assay: synthetic Aβ1-42 captured on antibody A8978 terminated germanium, auto-induced fibrilization monitored by amide I band; assay type: biochemical
T1 construct: Amyloid-beta-Protein fragment 1-42; purchased Sigma-Aldrich A9810; host or cells: synthetic peptide
Text: The present invention is based on the detection of secondary structural changes induced by the potential drug by means of vibrational spectroscopy. […] Instead of a 70V (Bruker) we employed an 80V FTIR spectrometer (Bruker) to improve the signal to noise ratio of the measurements. As internal reflection element germanium crystal were chemically modified with NHS-silanes, which function as anchors for the covalent attachment of the desired antibodies. After blocking the surface with casein the surface is ready for capturing of the target protein (Tau or Aβ1-42). […] The target protein was analyzed in the presence of the potential drug and the effect was monitored by the change in the amide I band. […] Another example is the study of the second important biomarker Aβ1-42. Since the developed sensor is universal, the antibody A8978 against the epitope 13-28 of Aβ1-42 could be applied for the analysis of the potential drug berberine. To monitor a potential effect of berberine the surface was loaded with synthetic Aβ1-42.
The human Aβ-peptide was purchased from Sigma-Aldrich (A9810, Amyloid-beta-Protein fragment 1-42).
IR-measurements were performed on a Vertex 80V spectrometer (Bruker Optics GmbH, Ettlingen, Germany) with liquid nitrogen cooled mercury-cadmium-telluride (MCT) detector. Double-sided interferograms were recorded in forward-backward interferometer movement at a 80 kHz data rate with a spectral resolution of 2 cm^−1, Blackman-Harris-3-Term-apodisation, Mertz-phase correction and 4 times zero filling. Reference spectra were recorded as an average of 1000, sample spectra of 200 interferograms. Recording reference single channel spectra of the blank sensor, sensor with 2-propanol, the silanized surface, the buffers, antibody or casein coated surface in equilibrium states enabled high sensitivity difference spectroscopy based on Lambert-Beer law (E=−log(I/I0). The absorbance of the state change is the negative decadic logarithm of the intensity relation before and after the change.
The antibody A8979 (Sigma-aldrich) was employed for capturing the Aβ-peptide (Nabers et al., Anal. Chem. 88(5):2755-62 doi:10.1021/acs.analchem.5b04286 (2016)). The Aβ-peptide (Aβ1-42, synthetic, Sigma-aldrich, Taufkrichen, Germany) was monomerized by incubation with hexafluoro-2-propanol as described elsewhere (Nabers et al., J. Biophotonics 9(3):224-34 doi:10.1002/jbio.201400145 (2016)).

[2] = test system: memory function; conditions: rat models; cited from earlier work
[3] = test system: Tau protein; experiment: ATR-FTIR sensor drug-screening assay: Tau protein captured from human CSF on antibody Tau-5 terminated germanium, amide I band monitored; assay type: biochemical; conditions: Tau extracted from CSF; methylene blue 50 μM, berberine 100 μM
Text: The present invention is based on the detection of secondary structural changes induced by the potential drug by means of vibrational spectroscopy. […] Instead of a 70V (Bruker) we employed an 80V FTIR spectrometer (Bruker) to improve the signal to noise ratio of the measurements. As internal reflection element germanium crystal were chemically modified with NHS-silanes, which function as anchors for the covalent attachment of the desired antibodies. After blocking the surface with casein the surface is ready for capturing of the target protein (Tau or Aβ1-42). The Tau protein was directly extracted out of human CSF. […] The target protein was analyzed in the presence of the potential drug and the effect was monitored by the change in the amide I band. […]
IR-measurements were performed on a Vertex 80V spectrometer (Bruker Optics GmbH, Ettlingen, Germany) with liquid nitrogen cooled mercury-cadmium-telluride (MCT) detector. Double-sided interferograms were recorded in forward-backward interferometer movement at a 80 kHz data rate with a spectral resolution of 2 cm^−1, Blackman-Harris-3-Term-apodisation, Mertz-phase correction and 4 times zero filling. Reference spectra were recorded as an average of 1000, sample spectra of 200 interferograms. […]

T1 sequence (P05067 672-713 limits assumed): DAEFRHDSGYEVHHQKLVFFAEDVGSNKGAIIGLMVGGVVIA

With `COc1ccc2cc3[n+](cc2c1OC)CCc1cc2c(cc1-3)OCO2` [berberine, berberine chloride] the “shoulder of amide I band (β-sheet enriched isoforms) of Aβ1-42 in presence of drug” value ([1]; 100 μM berberine) was 1634 cm⁻¹, the “shift of the amide I maximum of Aβ1-42 versus no drug” value ([1]; 100 μM berberine, 18 h) was 25 cm⁻¹ and the “amide I maximum of Aβ1-42 in presence of drug” value ([1]; 100 μM berberine, 18 h total, without drug 1634 cm^−1) was 1659 cm⁻¹. For the same compound, the “effect on secondary structure distribution / fibrilization of Aβ1-42” value ([1]; synthetic Aβ1-42, drug 100 μM, same conditions for both drugs) was “shifts the distribution mainly to α-helix; also recorded: directly decelerates the aggregation process of Aβ1-42; also recorded: decelerates the auto-induced fibrilization of Aβ1-42”, the “effect on memory function” value [2] was “positive effect on the memory function” and the “effect on secondary structure distribution of Tau protein” value [3] was “did not change the secondary structure distribution; also recorded: no significant effect on the Tau protein”.

Reference: US11592451B2, “Method for the preselection of drugs for protein misfolding diseases” (betaSENSE GmbH, priority 2016, dated 2023)
